Results taken from the supplement of paper PMC10307832.

Columns and labels:
Assay in all cases: relative viability (nuclei count vs DMSO), 5 days (fraction); higher = more cells survive
BEN = tested on: BEN
Summary of the method: (§1)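 Cells from lung cancer lines were seeded into 1536-well plates and, one day later, dosed by pin tool. Treatments were either a single drug or a fixed dose of an anchor drug with five library-drug doses (not always all listed) in √10 steps. After 5 days, nuclei were stained in a one-step fixation (final 0.05% Triton X-100, 1% formaldehyde, 1 ug/ml Hoechst) and counted on 4× images, and relative viability is the treated-to-vehicle nuclei ratio, as the median of duplicate plates.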

NCI-H2087 = tested on: NCI-H2087
Summary of the method: as §1

ABC-1 = tested on: ABC-1
Summary of the method: as §1

NCI-H1915 = tested on: NCI-H1915
Summary of the method: as §1

NCI-H650 = tested on: NCI-H650
Summary of the method: as §1

NCI-H441 = tested on: NCI-H441
Summary of the method: as §1

NCI-H727 = tested on: NCI-H727
Summary of the method: as §1

201T = tested on: 201T
Summary of the method: as §1

NCI-H596 = tested on: NCI-H596
Summary of the method: as §1

LCLC-97TM1 = tested on: LCLC-97TM1
Summary of the method: as §1

NCI-H460 = tested on: NCI-H460
Summary of the method: as §1

A-427 = tested on: A-427
Summary of the method: as §1

LC-2-ad = tested on: LC-2-ad
Summary of the method: as §1

NCI-H1944 = tested on: NCI-H1944
Summary of the method: as §1

PC-3 [JPC-3] = tested on: PC-3 [JPC-3]
Summary of the method: as §1

CAL-12T = tested on: CAL-12T
Summary of the method: as §1

NCI-H1651 = tested on: NCI-H1651
Summary of the method: as §1

H3255 = tested on: H3255
Summary of the method: as §1

CCN(CC)CCCCNc1ncc2cc(-c3cc(OC)cc(OC)c3)c(NC(=O)NC(C)(C)C)nc2n1 + NC(=O)Nc1cc(-c2cccc(F)c2)sc1C(=O)N[C@H]1CCCNC1 [AZD7762] (partner 0.2 µM)
relative viability (BEN; first compound 0.01 µM): 0.669 | relative viability (BEN; first compound 0.03162 µM): 0.61 | relative viability (BEN; first compound 0.1 µM): 0.703 | relative viability (BEN; first compound 0.3162 µM): 0.757 | relative viability (BEN; first compound 1 µM): 0.676 | relative viability (NCI-H2087; first compound 0.01 µM): 1.21 | relative viability (NCI-H2087; first compound 0.03162 µM): 1.31 | relative viability (NCI-H2087; first compound 0.1 µM): 1.34 | relative viability (NCI-H2087; first compound 0.3162 µM): 1.29 | relative viability (NCI-H2087; first compound 1 µM): 1.18 | relative viability (ABC-1; first compound 0.01 µM): 0.766 | relative viability (ABC-1; first compound 0.1 µM): 1.1 | relative viability (ABC-1; first compound 0.3162 µM): 0.795 | relative viability (ABC-1; first compound 1 µM): 0.825 | relative viability (NCI-H1915; first compound 0.01 µM): 0.655 | relative viability (NCI-H1915; first compound 0.03162 µM): 0.753 | relative viability (NCI-H1915; first compound 0.1 µM): 0.708 | relative viability (NCI-H1915; first compound 0.3162 µM): 0.757 | relative viability (NCI-H1915; first compound 1 µM): 0.736 | relative viability (NCI-H650; first compound 0.01 µM): 0.909 | relative viability (NCI-H650; first compound 0.03162 µM): 0.944 | relative viability (NCI-H650; first compound 0.1 µM): 0.97 | relative viability (NCI-H650; first compound 0.3162 µM): 1.22 | relative viability (NCI-H650; first compound 1 µM): 0.994 | relative viability (NCI-H441; first compound 0.01 µM): 1.16 | relative viability (NCI-H441; first compound 0.03162 µM): 1.16 | relative viability (NCI-H441; first compound 0.1 µM): 1.1 | relative viability (NCI-H441; first compound 0.3162 µM): 1.39 | relative viability (NCI-H441; first compound 1 µM): 0.921 | relative viability (NCI-H727; first compound 0.01 µM): 0.766 | relative viability (NCI-H727; first compound 0.03162 µM): 0.63 | relative viability (NCI-H727; first compound 0.1 µM): 0.677 | relative viability (NCI-H727; first compound 0.3162 µM): 0.791 | relative viability (NCI-H727; first compound 1 µM): 0.667 | relative viability (201T; first compound 0.01 µM): 0.747 | relative viability (201T; first compound 0.03162 µM): 0.617 | relative viability (201T; first compound 0.1 µM): 0.68 | relative viability (201T; first compound 0.3162 µM): 0.685 | relative viability (201T; first compound 1 µM): 0.758 | relative viability (NCI-H596; first compound 0.01 µM): 1.11 | relative viability (NCI-H596; first compound 0.03162 µM): 1 | relative viability (NCI-H596; first compound 0.1 µM): 1.06 | relative viability (NCI-H596; first compound 0.3162 µM): 0.979 | relative viability (NCI-H596; first compound 1 µM): 0.801 | relative viability (LCLC-97TM1; first compound 0.03162 µM): 0.384 | relative viability (LCLC-97TM1; first compound 0.1 µM): 0.275 | relative viability (LCLC-97TM1; first compound 0.3162 µM): 0.234 | relative viability (LCLC-97TM1; first compound 1 µM): 0.227 | relative viability (NCI-H460; first compound 0.01 µM): 0.607 | relative viability (NCI-H460; first compound 0.03162 µM): 0.739 | relative viability (NCI-H460; first compound 0.1 µM): 0.716 | relative viability (NCI-H460; first compound 0.3162 µM): 0.821 | relative viability (NCI-H460; first compound 1 µM): 0.4 | relative viability (A-427; first compound 0.01 µM): 0.722 | relative viability (A-427; first compound 0.03162 µM): 0.671 | relative viability (A-427; first compound 0.1 µM): 0.778 | relative viability (A-427; first compound 0.3162 µM): 0.549 | relative viability (A-427; first compound 1 µM): 0.421 | relative viability (LC-2-ad; first compound 0.01 µM): 0.878 | relative viability (LC-2-ad; first compound 0.03162 µM): 0.798 | relative viability (LC-2-ad; first compound 0.1 µM): 0.92 | relative viability (LC-2-ad; first compound 0.3162 µM): 0.932 | relative viability (LC-2-ad; first compound 1 µM): 0.815 | relative viability (NCI-H1944; first compound 0.01 µM): 0.474 | relative viability (NCI-H1944; first compound 0.03162 µM): 0.86 | relative viability (NCI-H1944; first compound 0.1 µM): 0.513 | relative viability (NCI-H1944; first compound 0.3162 µM): 0.505 | relative viability (NCI-H1944; first compound 1 µM): 0.494 | relative viability (PC-3 [JPC-3]; first compound 0.03162 µM): 0.822 | relative viability (PC-3 [JPC-3]; first compound 0.1 µM): 0.756 | relative viability (PC-3 [JPC-3]; first compound 0.3162 µM): 1.03 | relative viability (PC-3 [JPC-3]; first compound 1 µM): 0.639 | relative viability (CAL-12T; first compound 0.01 µM): 0.594 | relative viability (CAL-12T; first compound 0.03162 µM): 0.564 | relative viability (CAL-12T; first compound 0.1 µM): 0.796 | relative viability (CAL-12T; first compound 0.3162 µM): 0.758 | relative viability (CAL-12T; first compound 1 µM): 0.641 | relative viability (NCI-H1651; first compound 0.01 µM): 0.444 | relative viability (NCI-H1651; first compound 0.03162 µM): 0.508 | relative viability (NCI-H1651; first compound 0.1 µM): 0.497 | relative viability (NCI-H1651; first compound 0.3162 µM): 0.608 | relative viability (NCI-H1651; first compound 1 µM): 0.397 | relative viability (H3255; first compound 0.01 µM): 0.84 | relative viability (H3255; first compound 0.03162 µM): 0.909 | relative viability (H3255; first compound 0.1 µM): 0.911 | relative viability (H3255; first compound 0.3162 µM): 1.11 | relative viability (H3255; first compound 1 µM): 0.855
